The source of these data is article PMC12380353, “MK-8527 is a novel inhibitor of HIV-1 reverse transcriptase translocation with potential for extended-duration dosing” (PLOS Biology, 2025).

Each structure is given as a SMILES string. Like-named read-outs stand apart in the source and are kept apart here.

As usually defined, the CC50 is the concentration at which the toxic effect on the cells reaches its halfway point. High values mean lower toxicity to the cells, low ones greater toxicity to the cells.

The target of one data set is T1, human DNA polymerase α (Homo sapiens, UniProt P09884).
T1 sequence (P09884 1-1462): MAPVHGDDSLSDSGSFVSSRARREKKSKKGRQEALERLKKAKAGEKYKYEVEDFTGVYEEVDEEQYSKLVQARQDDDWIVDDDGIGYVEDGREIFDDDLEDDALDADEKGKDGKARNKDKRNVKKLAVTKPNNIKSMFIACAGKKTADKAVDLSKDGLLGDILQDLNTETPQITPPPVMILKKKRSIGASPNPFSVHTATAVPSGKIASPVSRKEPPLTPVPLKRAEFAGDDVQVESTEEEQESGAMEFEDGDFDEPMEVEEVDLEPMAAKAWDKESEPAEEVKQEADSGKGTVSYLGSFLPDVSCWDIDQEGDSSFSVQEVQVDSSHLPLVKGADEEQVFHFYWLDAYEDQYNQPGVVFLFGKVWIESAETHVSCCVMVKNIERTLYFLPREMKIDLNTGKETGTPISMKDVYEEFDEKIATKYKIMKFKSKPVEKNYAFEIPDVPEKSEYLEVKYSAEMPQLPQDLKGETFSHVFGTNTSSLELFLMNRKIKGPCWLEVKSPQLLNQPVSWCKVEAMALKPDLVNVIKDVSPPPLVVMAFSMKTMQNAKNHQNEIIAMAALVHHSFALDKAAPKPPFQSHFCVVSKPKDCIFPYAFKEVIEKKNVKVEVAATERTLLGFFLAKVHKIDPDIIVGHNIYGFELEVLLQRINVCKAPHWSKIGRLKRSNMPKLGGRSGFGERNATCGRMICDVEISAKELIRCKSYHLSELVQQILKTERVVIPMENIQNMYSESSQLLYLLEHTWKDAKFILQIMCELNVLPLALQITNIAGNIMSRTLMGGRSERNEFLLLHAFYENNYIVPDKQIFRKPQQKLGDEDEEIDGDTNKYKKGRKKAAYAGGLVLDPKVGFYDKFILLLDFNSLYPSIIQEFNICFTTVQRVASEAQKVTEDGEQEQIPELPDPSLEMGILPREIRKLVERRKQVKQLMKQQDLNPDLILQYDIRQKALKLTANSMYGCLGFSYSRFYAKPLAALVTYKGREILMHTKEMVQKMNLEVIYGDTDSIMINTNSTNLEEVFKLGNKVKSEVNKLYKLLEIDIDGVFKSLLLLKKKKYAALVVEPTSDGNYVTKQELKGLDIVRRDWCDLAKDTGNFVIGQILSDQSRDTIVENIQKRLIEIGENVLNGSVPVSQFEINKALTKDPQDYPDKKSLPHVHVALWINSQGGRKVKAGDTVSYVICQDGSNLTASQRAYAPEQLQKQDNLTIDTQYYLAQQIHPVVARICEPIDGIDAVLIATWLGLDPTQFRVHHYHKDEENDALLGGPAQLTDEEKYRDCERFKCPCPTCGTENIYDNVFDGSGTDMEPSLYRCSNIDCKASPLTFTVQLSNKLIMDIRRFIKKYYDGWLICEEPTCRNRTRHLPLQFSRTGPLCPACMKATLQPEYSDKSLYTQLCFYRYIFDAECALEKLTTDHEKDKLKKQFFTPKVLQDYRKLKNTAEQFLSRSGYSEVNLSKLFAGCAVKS
Put plainly: Human DNA polymerase α inhibition assay. The settings on record: top concentration 200 µM. It counts as biochemical. As to the method:
(§1) The activities of human DNA polymerases α, β, and γ were measured in radiolabeled nucleotide incorporation assays. TP was prepared as a 10-point titration with 3-fold serial dilution in water. Reaction buffers for the DNA polymerase α and β assays both contained 20 mM Tris pH 7.5, 10 mM MgCl2, 50 μM EDTA, 200 μg/mL bovine serum albumin (BSA), 2 mM dithiothreitol (DTT), 1.6 μM each of dNTP (dATP, dCTP, dGTP, and dTTP), 20 μCi/mL [α33P]dATP, 0.1 mg/mL gapped activated fish sperm DNA template, test compound, and 0.005 U/μL DNA polymerase α or 0.0025 U/μL DNA polymerase β. The reaction buffer for DNA polymerase γ contained 20 mM Tris pH 8, 10 mM MgCl2, 50 mM KCl, 100 μg/mL BSA, 2 mM β-mercaptoethanol, 10 μM of each dNTP (dATP, dCTP, dGTP, and dTTP), 20 μCi/mL [α33P]dATP, 0.04 mg/mL gapped activated fish sperm DNA template, test compound, and 0.0003 μg/μL DNA polymerase γ. The 50-μL reactions were incubated at room temperature for 30 min (for β and γ) or 90 min (for α) before terminating with the addition of 50 μL 500 mM EDTA. The reaction mixtures were transferred to a Millipore DE81 filter plate (EMD Millipore; Hayward, CA), washed with 0.5 M sodium phosphate pH 7.0, and dried. After addition of 40 μL scintillant to each well, the incorporation of labeled dATP was determined with a microplate counter (TopCount NXT HTS; PerkinElmer, Shelton, CA, USA).

The next data set concerns the target human DNA polymerase β (Homo sapiens, UniProt P06746). Nature of the data set: Human DNA polymerase β inhibition assay. It counts as biochemical. The settings on record: highest concentration tested 200 µM. The protocol:
as §1

The test system of a further data set is HIV-2ROD. Nature of the data set: Cytoprotection assay in CEM-SS cells, HIV-2. It counts as cell-based. The settings on record: Human immunodeficiency virus 2, 144 h, 6 days, read-out: Antiviral potency as IC50, HIV-2 – CEM-SS cells. The protocol:
The antiviral activity of MK-8527 against HIV-1 and HIV-2 was determined in a cytoprotection assay in CEM-SS cells at ImQuest BioSciences (Fredrick, MD, USA). Briefly, CEM-SS cells (National Institute of Health AIDS Research and Reference Reagent Program) were passaged in RPMI 1640 supplemented with 10% heat-inactivated FBS, 2 mM L-glutamine, 100 U/mL penicillin and 100 µg/mL streptomycin prior to use in the antiviral assay. On the day preceding the assay, the cells were split 1:2 to ensure they were in an exponential growth phase at the time of infection. The cells were resuspended at 2.5 × 10^3 cells per well in cell culture medium and added to the drug-containing microtiter plates at 50 µL per well. MK-8527 was tested in triplicate for each experiment, with 12 test concentrations added at 100 µL per well.
Lymphocyte-tropic virus strains HIV-1IIIB or HIV-2ROD (NIH AIDS Research and Reference Reagent Program) were diluted into tissue culture medium such that the amount of virus added to each well in a volume of […] corresponded to the amount determined to yield 85% to 95% cell killing in the untreated virus control wells at 6–7 days. Virus was added immediately after cells were added to the 96-well microtiter plates.
The IC50 for MK-8527 antiviral activity was determined using 4-parameter curve fit calculations.

A further data set concerns HIV-1. Put plainly: microbe, parasite or virus in culture.
Data set [1] is described as follows: CellTiter-Glo (CTG) cytotoxicity in MT4-GFP cells. The settings on record: human.

Procedure for HIV-1: IC50 values were determined, and a persistence ratio was calculated for each compound.
Assay media in each well were then evacuated and the cells resuspended using the gentle setting on the BlueWasher (BlueCatBio; Lebanon, NH, USA). Centrifugation and wash steps were repeated to ensure removal of extracellular compound.
MT4-GFP cells were infected with WT R8 virus, and PBMCs were infected with pNLG1-P2A-GFP. […] IC50 values were determined by nonlinear 4-parameter curve fitting of the data. A persistence ratio was calculated for each compound by dividing the IC50 from variable B (IC50B) by the IC50 from variable A (IC50A).

`C#C[C@]1(COP(=O)(O)OP(=O)(O)OP(=O)(O)O)O[C@@H](n2ccc3c(N)nc(Cl)nc32)C[C@@H]1O` [MK-8527-TP] showed an IC50 against human DNA polymerase α of 95000 nM. Besides, at human DNA polymerase β, the Inhibitory activity result is listed as “no inhibitory activity”.

On to `C#C[C@]1(CO)O[C@@H](n2ccc3c(N)nc(Cl)nc32)C[C@@H]1O` [Compound 12, (2R,3S,5R)-5-(4-amino-2-chloro-7H-pyrrolo[2,3-d]pyrimidin-7-yl)-2-ethynyl-2-(hydroxymethyl)tetrahydrofuran-3-ol], for which the IC50 is 0.007 nM in the data set with HIV-2ROD; 223 ± 104 nM with HIV-1 (Human immunodeficiency virus 1, 48 h, read-out: Persistence assay IC50B, MT4-GFP cells); 7.2 ± 2.3 nM with HIV-1 (Human immunodeficiency virus 1, read-out: Persistence assay IC50A, MT4-GFP cells). The molecule further returned a CC50 in data set [1] of over 42000 nM.
